# Data taken from US10752593B2, “Compounds for use as therapeutically active substances in the treatment of retinal diseases” (ENDOGENA THERAPEUTICS, INC., priority 2018, dated 2020).
# Tested on: retinal precursor cells
# Assay: Sphere passaging and high-throughput drug screening: proliferation of retinal precursor cells within one week
# Format: cell-based, mammalian
# Conditions: for Cell proliferation within one week [%]: results table after the methods, retinal precursor cells grown one week with compound in 0.1% DMSO, control without compound = 100
# Method: Kynurenic Acid (0.2 mg/mL), trypsin (1.33 mg/mL), and hyaluronidase (0.67 mg/mL) were weighed out and dissolved in high magnesium/low calcium artificial cerebral spinal fluid (aCSF) at 37° C. Fibroblast growth factor 2 (FGF2; 10 ng/mL) and heparin (2 μg/mL) were added to 100 mL of serum-free media (SFM). Ovomucoid trypsin inhibitor (1 mg/mL) was dissolved in warm SFM and sterile filtered ([…]).
# A dissecting microscope, cold light source, and sterile surgical instruments were set up inside of a sterile biological safety cabinet (BSC). Mammalian eyes were enucleated and placed in a petri dish containing cold, sterile aCSF. Under the dissecting microscope, hair, connective tissue, and the dorsal and ventral oblique muscles were cleared from the scleral/corneal border with two sets of forceps. Next, curved or angled micro-dissecting scissors were used to cleave any remaining extraocular muscle tissue, the optic nerve, and cut the eyeball into symmetrical halves; beginning and finishing the cut from the hole left by the optic nerve. Using two sets of forceps to grasp the cornea, the two eye halves were peeled apart. The lens, optic nerve, and vitreous were separated from the eye shells and the eye shells were transferred into a new petri dish (also containing cold, sterile aCSF). To isolate the ciliary epithelium (CE), eye shells were oriented with the cornea on the right and retinal pigmented epithelium (RPE) on the left. A pair of straight forceps were used to pin down the eye shell on the RPE side while a scalpel blade was inserted between the CE and the iris, using pressure to slice the iris/cornea side off from the rest of the shell. Next, the scalpel was run along the border between the CE and the RPE to obtain the CE isolated as a thin strip of tissue. The CE strips were then transferred to a 35 mm dish containing 2 mL of dispase solution (Sigma; T1005) and incubated for 10 minutes at 37° C. Next, the strips were transferred from dispase into a 35 mm dish containing 2 mL of sterile filtered kynurenic acid, trypsin and hyaluronidase solution and incubated at 37° C. for 10 minutes. After incubation, the dish was returned to the dissecting scope, and the CE strips were pinned down with straight, non-serrated forceps, while non-serrated curved forceps were used to scrape the CE off from the underlying sclera. The bare scleral strips were then discarded, such that only the CE cells remained in the enzyme solution. Using a fire-polished, cotton-plugged glass pipette, the cells and enzyme solution were transferred to a 15 mL tube and triturated approximately 45 times to break apart the tissue. The 15 mL tube/cell suspension was centrifuged for 5 minutes at 1500 rpm. The supernatant was gently aspirated from the resulting pellet using a fire-polished, cotton-plugged glass pipette and 2 mL of trypsin inhibitor solution was added to the pellet. Using a small borehole, fire-polished, cotton-plugged glass pipette, the sample was triturated approximately 45 times until it was a single-cell suspension. The 15 mL tube/cell suspension was centrifuged for 5 minutes at 1500 rpm. The supernatant was gently aspirated from the resulting pellet and 1-2 mL of SFM with FGF2 and heparin (plating media) was added. The cells and media were mixed to ensure a uniform cell suspension and a 10 uL sample was taken and cell density was determined. The cells were then seeded and cultured at 10c/μL in culture-treated plates or flasks. After one week, roughly 1 in 500 cells proliferated to form free-floating, clonal spheres greater than 80 μm in diameter.
# Human-derived spheres were passaged using the kynurenic acid, trypsin, hyaluronidase enzyme solution with the addition of collagenase I (0.5 mg/mL), collagenase II (0.5 mg/mL) and elastase (0.1 mg/mL). Mouse-derived spheres were passaged using hyaluronidase (0.67 mg/mL), collagenase I (0.5 mg/mL), and collagenase II (0.5 mg/mL) dissolved in Accustase solution (Sigma; SCR005). […]
Compound,Cell proliferation within one week [%],"increase of cell proliferation within one week (increase over control, retinal precursor cells) [%]"
"COc1cc(NC(=O)Cc2ccccc2)ccc1-c1ccncc1 [Compound E1063, N-(3-methoxy-4-(pyridin-4-yl)phenyl)-2-phenylacetamide]",130,–
"COc1cc(NC(=O)Cc2cccc(OC(F)F)c2)ccc1-c1ccncc1 [Compound E1066, 2-(3-(difluoromethoxy)phenyl)-N-(3-methoxy-4-(pyridin-4-yl)phenyl)acetamide]",108,–
"COc1ccccc1CC(=O)Nc1ccc(-c2ccncc2)c(OC)c1 [Compound E1068, N-(3-methoxy-4-(pyridin-4-yl)phenyl)-2-(2-methoxyphenyl)acetamide]",108,–
"COc1cc(NC(=O)Cc2ccc(F)cc2F)ccc1-c1ccncc1 [Compound E1069, 2-(2,4-difluorophenyl)-N-(3-methoxy-4-(pyridin-4-yl)phenyl) acetamide]",106,–
"COc1cc(NC(=O)Cc2cccc(C(F)(F)F)c2)ccc1-c1ccncc1 [Compound E1070, N-(3-methoxy-4-(pyridin-4-yl)phenyl)-2-(3-(trifluoromethyl)phenyl)acetamide]",106,–
"COc1cc(NC(=O)Cc2ccccc2C(F)(F)F)ccc1-c1ccncc1 [Compound E1071, N-(3-methoxy-4-(pyridin-4-yl)phenyl)-2-(2-(trifluoromethyl)phenyl)acetamide]",113,–
"COc1cccc(CC(=O)Nc2ccc(-c3ccncc3)c(OC)c2)c1 [Compound E1072, N-(3-methoxy-4-(pyridin-4-yl)phenyl)-2-(3-methoxyphenyl)acetamide]",140,40
COc1cc(NC(=O)Cc2ccccc2OC(F)F)ccc1-c1ccncc1 [Compound E1073],121,–
"COc1cccc(CC(=O)Nc2ccc(-c3ccncc3)cc2)c1 [Compound E1078, 2-(3-methoxyphenyl)-N-(4-(pyridin-4-yl)phenyl)acetamide]",136,–
